According to patent US10550124B2, “Atropisomerism for increased kinase inhibitor selectivity” (SAN DIEGO STATE UNIVERSITY RESEARCH FOUNDATION, priority 2015, dated 2020):

How the values were obtained:
Type in all cases: biochemical
Alk = Alk (Homo sapiens, UniProt Q9UM73); assay: Z′-LYTE kinase inhibition assay, Alk; conditions: for % inhibition: average of 2 runs
From the text: (§1) All samples were sent out to Life Technologies to obtain kinase inhibition data. A brief description of the assays and analyses are included below.
(§2) Assay Theory (SelectScreen® Kinase Profiling Services (Life Technologies, Madison, Wis. USA). The Z′-LYTE® biochemical assay employs a fluorescence-based, coupled-enzyme format and is based on the differential sensitivity of phosphorylated and non-phosphorylated peptides to proteolytic cleavage. The peptide substrate is labeled with two fluorophores one at each end—that make up a FRET pair.
(§3) In the primary reaction, the kinase transfers the gamma-phosphate of ATP to a single tyrosine, serine or threonine residue in a synthetic FRET-peptide. In the secondary reaction, a site-specific protease recognizes and cleaves non-phosphorylated FRET-peptides.
(§4) Phosphorylation of FRET-peptides suppresses cleavage by the Development Reagent. Cleavage disrupts FRET between the donor (i.e., coumarin) and acceptor (i.e., fluorescein) fluorophores on the FRET-peptide, whereas uncleaved, phosphorylated FRET-peptides maintain FRET. A ratiometric method, which calculates the ratio (the Emission Ratio) of donor emission to acceptor emission after excitation of the donor fluorophore at 400 nm, is used to quantitate reaction progress, as shown in the equation below: […]
(§5) A significant benefit of this ratiometric method for quantitating reaction progress is the elimination of well-to-well variations in FRET-peptide concentration and signal intensities. As a result, the assay yields very high Z′-factor values (>0.7) at a low percent phosphorylation. Both cleaved and uncleaved FRET-peptides contribute to the fluorescence signals and therefore to the Emission Ratio. The extent of phosphorylation of the FRET-peptide can be calculated from the Emission Ratio. The Emission Ratio will remain low if the FRET-peptide is phosphorylated (i.e., no kinase inhibition) and will he high if the FRET-peptide is non-phosphorylated (i.e., kinase inhibition).

EGFR = EGFR (Homo sapiens, UniProt P00533); assay: Z′-LYTE kinase inhibition assay, EGFR; conditions: for % inhibition: average of 2 runs
From the text: as §1, §2, §3, §4, §5

Fgr = Fgr (Homo sapiens, UniProt P09769); assay: Z′-LYTE kinase inhibition assay, Fgr; conditions: for % inhibition: average of 2 runs
From the text: as §1, §2, §3, §4, §5

Ret = Ret (Homo sapiens, UniProt P07949); assay: Z′-LYTE kinase inhibition assay, Ret; conditions: for % inhibition: average of 2 runs
From the text: as §1, §2, §3, §4, §5

Lyn = Lyn (Homo sapiens, UniProt P07948); assay: Z′-LYTE kinase inhibition assay, Lyn; conditions: for % inhibition: average of 2 runs
From the text: as §1, §2, §3, §4, §5

Src kinase = Src kinase (Homo sapiens, UniProt P12931); assay: Z′-LYTE kinase inhibition assay, Src
From the text: Based on the observed stereochemical stabilities, we chose 1f, 2e, and 2f for further study and obtained inhibition data against Src kinase from Life Technologies' Z′-LYTE™ kinase assay (Scheme 3).
as §1, §2, §3, §4, §5

pdgfr-b = pdgfr-b (Homo sapiens, UniProt P09619); assay: Z′-LYTE kinase inhibition assay, pdgfr-b; conditions: for % inhibition: average of 2 runs
pdgfr-b, sequence (P09619 33-1106): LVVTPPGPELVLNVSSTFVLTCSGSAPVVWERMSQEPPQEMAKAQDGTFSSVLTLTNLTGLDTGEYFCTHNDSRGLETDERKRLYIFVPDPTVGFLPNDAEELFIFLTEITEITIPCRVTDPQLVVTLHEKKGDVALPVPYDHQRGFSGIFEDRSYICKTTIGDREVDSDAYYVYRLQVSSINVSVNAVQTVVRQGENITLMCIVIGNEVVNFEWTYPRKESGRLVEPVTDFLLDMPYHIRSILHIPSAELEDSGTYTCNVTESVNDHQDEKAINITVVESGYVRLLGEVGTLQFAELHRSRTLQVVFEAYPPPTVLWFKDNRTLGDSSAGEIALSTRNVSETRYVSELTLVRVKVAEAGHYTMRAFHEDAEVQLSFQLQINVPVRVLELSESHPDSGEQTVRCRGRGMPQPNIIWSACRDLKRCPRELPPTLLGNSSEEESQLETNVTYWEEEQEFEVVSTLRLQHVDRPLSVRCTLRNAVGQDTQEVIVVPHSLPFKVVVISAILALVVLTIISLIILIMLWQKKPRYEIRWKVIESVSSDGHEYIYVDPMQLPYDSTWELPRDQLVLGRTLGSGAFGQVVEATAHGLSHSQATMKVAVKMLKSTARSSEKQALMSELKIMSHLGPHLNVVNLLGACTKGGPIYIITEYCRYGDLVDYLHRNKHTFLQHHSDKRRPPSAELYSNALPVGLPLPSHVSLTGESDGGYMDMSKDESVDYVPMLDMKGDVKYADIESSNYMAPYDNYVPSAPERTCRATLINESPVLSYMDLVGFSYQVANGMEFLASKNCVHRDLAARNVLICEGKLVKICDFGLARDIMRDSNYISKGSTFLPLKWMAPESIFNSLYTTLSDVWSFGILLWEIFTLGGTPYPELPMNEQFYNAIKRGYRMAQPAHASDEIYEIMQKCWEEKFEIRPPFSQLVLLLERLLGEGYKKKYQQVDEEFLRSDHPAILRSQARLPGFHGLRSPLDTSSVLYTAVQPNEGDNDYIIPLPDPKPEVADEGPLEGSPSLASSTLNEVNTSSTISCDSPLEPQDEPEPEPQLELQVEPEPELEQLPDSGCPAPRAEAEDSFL
From the text: as §1, §2, §3, §4, §5

Abl = Abl (Homo sapiens, UniProt P00519); assay: Z′-LYTE kinase inhibition assay, Abl; conditions: for % inhibition: average of 2 runs
From the text: as §1, §2, §3, §4, §5

Fyn = Fyn (Homo sapiens, UniProt P06241); assay: Z′-LYTE kinase inhibition assay, Fyn; conditions: for % inhibition: average of 2 runs
From the text: as §1, §2, §3, §4, §5

Lck = Lck (Homo sapiens, UniProt P06239); assay: Z′-LYTE kinase inhibition assay, Lck; conditions: for % inhibition: average of 2 runs
Lck, sequence (P06239 whole entry): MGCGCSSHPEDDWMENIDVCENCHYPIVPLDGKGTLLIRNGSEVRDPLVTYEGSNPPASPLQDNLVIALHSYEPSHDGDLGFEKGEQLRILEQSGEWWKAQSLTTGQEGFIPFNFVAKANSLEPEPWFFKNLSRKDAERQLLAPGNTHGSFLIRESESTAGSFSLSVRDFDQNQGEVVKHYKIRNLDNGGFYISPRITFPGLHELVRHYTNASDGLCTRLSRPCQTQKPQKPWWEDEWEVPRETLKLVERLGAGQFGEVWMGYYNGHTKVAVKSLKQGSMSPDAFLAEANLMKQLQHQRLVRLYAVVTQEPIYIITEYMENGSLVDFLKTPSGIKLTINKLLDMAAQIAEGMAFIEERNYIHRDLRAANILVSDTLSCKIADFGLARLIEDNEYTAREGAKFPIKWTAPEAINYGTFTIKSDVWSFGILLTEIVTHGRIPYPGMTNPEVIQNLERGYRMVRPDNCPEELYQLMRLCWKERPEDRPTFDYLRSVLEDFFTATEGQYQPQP
From the text: as §1, §2, §3, §4, §5

Blk = Blk (Homo sapiens, UniProt P51451); assay: Z′-LYTE kinase inhibition assay, Blk; conditions: for % inhibition: average of 2 runs
From the text: as §1, §2, §3, §4, §5

BTK = BTK (Homo sapiens, UniProt Q06187); assay: Z′-LYTE kinase inhibition assay, BTK; conditions: for % inhibition: average of 2 runs
From the text: as §1, §2, §3, §4, §5

Hck = Hck (Homo sapiens, UniProt P08631); assay: Z′-LYTE kinase inhibition assay, Hck; conditions: for % inhibition: average of 2 runs
From the text: as §1, §2, §3, §4, §5

CSK = CSK (Homo sapiens, UniProt P41240); assay: Z′-LYTE kinase inhibition assay, CSK; conditions: for % inhibition: average of 2 runs
From the text: as §1, §2, §3, §4, §5

pdgfr-a = pdgfr-a (Homo sapiens, UniProt P16234); assay: Z′-LYTE kinase inhibition assay, pdgfr-a; conditions: for % inhibition: average of 2 runs
From the text: as §1, §2, §3, §4, §5

Yes = Yes (Homo sapiens, UniProt P07947); assay: Z′-LYTE kinase inhibition assay, Yes; conditions: for % inhibition: average of 2 runs
Yes, sequence (P07947 whole entry): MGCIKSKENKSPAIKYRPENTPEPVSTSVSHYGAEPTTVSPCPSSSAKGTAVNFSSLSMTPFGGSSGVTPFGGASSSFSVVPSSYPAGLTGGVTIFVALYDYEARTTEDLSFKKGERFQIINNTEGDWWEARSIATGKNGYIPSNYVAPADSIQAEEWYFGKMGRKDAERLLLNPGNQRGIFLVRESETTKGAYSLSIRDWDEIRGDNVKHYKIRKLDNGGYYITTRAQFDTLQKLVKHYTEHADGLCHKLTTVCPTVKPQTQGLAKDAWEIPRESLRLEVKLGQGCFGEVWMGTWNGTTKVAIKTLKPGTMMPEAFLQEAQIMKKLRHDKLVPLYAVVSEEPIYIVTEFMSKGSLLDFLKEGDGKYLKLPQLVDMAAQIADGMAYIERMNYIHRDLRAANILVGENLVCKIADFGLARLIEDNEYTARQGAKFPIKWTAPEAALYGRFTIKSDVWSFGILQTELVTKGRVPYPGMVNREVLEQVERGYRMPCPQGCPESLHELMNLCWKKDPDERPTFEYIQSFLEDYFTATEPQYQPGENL
From the text: as §1, §2, §3, §4, §5

[1] = tested on: panel of 18 tyrosine kinases; assay: Kinase inhibitor profiling across a panel of tyrosine kinases (selectivity); conditions: for S(40%): number of kinases inhibited greater than 40% divided by number of kinases tested (including Src)
Procedure: In order to probe the effect of atropisomeric conformation on kinase selectivity we subjected 1f, 2e, and 2f to kinase inhibitor profiling across a panel of tyrosine kinases at 1000 nM and 5000 nM (data for 2e shown in Scheme 4 below).
To analyze each analog's selectivity across the panel we turned to selectivity scores (Davis et al., Nat. Biotechnol. 2011, 29, 1046-51), simply the number of kinases inhibited above a certain threshold divided by the number of kinases evaluated. […] For example at 1000 nM 2e-(R) yielded an S(40%) of 0.11 while 2e-(S) gave an S(40%) of 0.16. […] Differences in selectivity between 2e-(R) and 2e-(S) at 5000 nM (4.5 times the IC50 of 2e-(S) toward Src) and for 5 at 1000 nM (6.25 times the IC50 of 5 toward Src) can be viewed graphically across tyrosine kinases (FIG. 3). Importantly, similar trends were also observed across each of the atropisomeric series tested.
as §1, §2, §3, §4, §5

Kit = Kit (Homo sapiens, UniProt P10721); assay: Z′-LYTE kinase inhibition assay, Kit; conditions: for % inhibition: average of 2 runs
Kit, sequence (P10721 26-976): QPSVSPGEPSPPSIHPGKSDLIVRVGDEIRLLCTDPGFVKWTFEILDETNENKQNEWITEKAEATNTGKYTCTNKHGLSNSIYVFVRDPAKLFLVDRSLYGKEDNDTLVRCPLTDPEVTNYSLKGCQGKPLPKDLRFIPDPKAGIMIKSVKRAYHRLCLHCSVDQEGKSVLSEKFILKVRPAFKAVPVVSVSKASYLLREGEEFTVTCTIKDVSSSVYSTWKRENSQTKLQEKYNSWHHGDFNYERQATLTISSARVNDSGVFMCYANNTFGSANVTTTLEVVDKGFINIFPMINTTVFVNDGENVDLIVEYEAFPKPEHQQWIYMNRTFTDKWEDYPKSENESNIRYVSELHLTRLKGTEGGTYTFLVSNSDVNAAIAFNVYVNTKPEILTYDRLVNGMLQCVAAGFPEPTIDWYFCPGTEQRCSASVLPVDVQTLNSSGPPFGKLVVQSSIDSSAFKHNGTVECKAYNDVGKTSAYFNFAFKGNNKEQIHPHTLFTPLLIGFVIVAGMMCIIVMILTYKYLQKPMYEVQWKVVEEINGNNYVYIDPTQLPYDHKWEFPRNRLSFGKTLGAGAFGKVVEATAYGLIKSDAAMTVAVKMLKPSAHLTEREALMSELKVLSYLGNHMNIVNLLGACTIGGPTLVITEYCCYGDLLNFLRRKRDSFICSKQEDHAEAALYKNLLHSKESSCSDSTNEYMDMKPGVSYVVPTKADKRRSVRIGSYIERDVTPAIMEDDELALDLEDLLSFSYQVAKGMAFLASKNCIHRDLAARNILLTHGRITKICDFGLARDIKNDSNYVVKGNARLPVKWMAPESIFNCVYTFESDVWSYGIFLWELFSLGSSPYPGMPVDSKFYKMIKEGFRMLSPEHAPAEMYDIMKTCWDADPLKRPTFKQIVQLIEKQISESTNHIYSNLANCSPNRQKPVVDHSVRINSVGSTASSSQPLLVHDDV
From the text: as §1, §2, §3, §4, §5

Her-2 = Her-2 (Homo sapiens, UniProt P04626); assay: Z′-LYTE kinase inhibition assay, Her-2; conditions: average of 2 runs
From the text: as §1, §2, §3, §4, §5

[2] = % inhibition 2e-(S)/% inhibition 2e-(R) at 5000 nM

Alk, sequence (Q9UM73 19-1620): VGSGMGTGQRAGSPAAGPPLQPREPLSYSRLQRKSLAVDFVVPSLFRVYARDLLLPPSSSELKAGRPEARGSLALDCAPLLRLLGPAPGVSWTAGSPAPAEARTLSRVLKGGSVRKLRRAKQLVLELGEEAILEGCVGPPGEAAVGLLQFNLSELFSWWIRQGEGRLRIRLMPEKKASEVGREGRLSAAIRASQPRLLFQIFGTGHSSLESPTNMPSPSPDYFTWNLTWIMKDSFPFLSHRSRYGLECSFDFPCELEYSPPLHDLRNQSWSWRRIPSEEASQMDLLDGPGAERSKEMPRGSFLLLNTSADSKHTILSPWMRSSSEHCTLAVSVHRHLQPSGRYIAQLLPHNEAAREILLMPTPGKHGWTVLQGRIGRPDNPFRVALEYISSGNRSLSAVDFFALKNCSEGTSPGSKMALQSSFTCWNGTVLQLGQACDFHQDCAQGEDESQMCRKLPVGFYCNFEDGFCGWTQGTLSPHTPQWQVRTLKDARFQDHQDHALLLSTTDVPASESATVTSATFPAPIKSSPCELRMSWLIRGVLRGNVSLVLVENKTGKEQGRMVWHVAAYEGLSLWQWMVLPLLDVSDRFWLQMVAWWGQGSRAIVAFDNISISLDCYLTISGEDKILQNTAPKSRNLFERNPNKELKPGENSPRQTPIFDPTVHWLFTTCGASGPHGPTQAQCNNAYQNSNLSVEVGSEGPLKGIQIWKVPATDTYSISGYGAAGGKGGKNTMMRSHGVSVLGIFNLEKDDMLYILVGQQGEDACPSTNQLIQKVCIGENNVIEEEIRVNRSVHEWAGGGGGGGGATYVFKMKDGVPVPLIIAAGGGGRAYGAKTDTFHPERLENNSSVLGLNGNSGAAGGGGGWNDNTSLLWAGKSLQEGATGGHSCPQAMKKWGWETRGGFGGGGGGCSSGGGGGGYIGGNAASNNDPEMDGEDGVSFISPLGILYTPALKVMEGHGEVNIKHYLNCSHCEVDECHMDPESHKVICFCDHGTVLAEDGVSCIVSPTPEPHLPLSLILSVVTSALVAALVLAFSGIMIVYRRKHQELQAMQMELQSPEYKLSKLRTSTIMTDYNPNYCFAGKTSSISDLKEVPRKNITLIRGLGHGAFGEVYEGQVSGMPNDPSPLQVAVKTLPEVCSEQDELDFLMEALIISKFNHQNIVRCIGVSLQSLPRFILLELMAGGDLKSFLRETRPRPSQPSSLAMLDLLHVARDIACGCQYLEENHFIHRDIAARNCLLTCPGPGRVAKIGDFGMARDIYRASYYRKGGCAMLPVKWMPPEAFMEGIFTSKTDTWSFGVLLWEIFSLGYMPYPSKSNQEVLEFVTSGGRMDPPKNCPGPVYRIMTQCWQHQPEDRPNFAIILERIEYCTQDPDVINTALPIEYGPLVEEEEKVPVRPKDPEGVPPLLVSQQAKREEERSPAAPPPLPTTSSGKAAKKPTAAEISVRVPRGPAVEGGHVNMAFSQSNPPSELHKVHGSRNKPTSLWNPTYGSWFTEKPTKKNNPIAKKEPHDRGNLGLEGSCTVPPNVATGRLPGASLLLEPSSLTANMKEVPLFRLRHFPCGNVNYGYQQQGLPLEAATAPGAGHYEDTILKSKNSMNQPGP

% inhibition (Alk; 1000 nM, 1 µM): 5% | % inhibition (Alk; 5000 nM, 5 µM): 7% | SIR (5000 nM) (Alk; [2]): 0.38 | IC50 of Kinase/IC50 of Yes (EGFR; EGFR relative to Yes): >10.0 | % inhibition (EGFR; EGFR, 1000 nM, 1 µM): 10% | % inhibition (EGFR; EGFR, 5000 nM, 5 µM): 21% | IC50 (EGFR; EGFR, error is standard deviation): > 10 µM | % inhibition (Fgr; 1000 nM, 1 µM): 58% | % inhibition (Fgr; 5000 nM, 5 µM): 81% | SIR (5000 nM) (Fgr; [2]): 1.05 | IC50 of Kinase/IC50 of Yes (Ret; Ret relative to Yes): 10.53 | % inhibition (Ret; Ret, 1000 nM, 1 µM): 14% | % inhibition (Ret; Ret, 5000 nM): 32% | % inhibition (Ret; Ret, 5000 nM, 5 µM): 32% | SIR (5000 nM) (Ret; Ret, % inhibition 2e-(S)/% inhibition 2e-(R) at 5000 nM): 0.44 | IC50 (Ret; Ret, error is standard deviation): 7.66 µM | % inhibition (Lyn; 1000 nM, 1 µM): 36% | % inhibition (Lyn; 5000 nM, 5 µM): 75% | SIR (5000 nM) (Lyn; [2]): 1.31 | IC50 of Kinase/IC50 of Yes (Src kinase; Src relative to Yes): 1.64 | IC50 (Src kinase; Src, error is standard deviation): 1.19 µM | % inhibition (pdgfr-b; 1000 nM, 1 µM): 13% | % inhibition (pdgfr-b; 5000 nM, 5 µM): 16% | SIR (5000 nM) (pdgfr-b; [2]): 1.23 | IC50 of Kinase/IC50 of Yes (Abl; Abl relative to Yes): 1.96 | % inhibition (Abl; Abl, 1000 nM, 1 µM): 36% | % inhibition (Abl; Abl, 5000 nM): 67% | % inhibition (Abl; Abl, 5000 nM, 5 µM): 67% | SIR (5000 nM) (Abl; Abl, % inhibition 2e-(S)/% inhibition 2e-(R) at 5000 nM): 2.57 | IC50 (Abl; Abl, error is standard deviation): 1.43 µM | % inhibition (Fyn; 1000 nM, 1 µM): 26% | % inhibition (Fyn; 5000 nM, 5 µM): 56% | SIR (5000 nM) (Fyn; [2]): 1.27 | % inhibition (Lck; 1000 nM, 1 µM): 26% | % inhibition (Lck; 5000 nM, 5 µM): 54% | SIR (5000 nM) (Lck; [2]): 1.05 | % inhibition (Blk; 1000 nM, 1 µM): 21% | % inhibition (Blk; 5000 nM, 5 µM): 47% | SIR (5000 nM) (Blk; [2]): 1.46 | % inhibition (BTK; 1000 nM, 1 µM): 18% | % inhibition (BTK; 5000 nM, 5 µM): 54% | SIR (5000 nM) (BTK; [2]): 1.86 | % inhibition (Hck; 1000 nM, 1 µM): 32% | % inhibition (Hck; 5000 nM, 5 µM): 50% | SIR (5000 nM) (Hck; [2]): 1.25 | % inhibition (CSK; 1000 nM, 1 µM): 19% | % inhibition (CSK; 5000 nM, 5 µM): 45% | SIR (5000 nM) (CSK; [2]): 1.28 | % inhibition (pdgfr-a; 1000 nM): 3% | % inhibition (pdgfr-a; 5000 nM, 5 µM): 13% | SIR (5000 nM) (pdgfr-a; [2]): 1.63 | IC50 of Kinase/IC50 of Yes (Yes; Yes relative to Yes): 1 | % inhibition (Yes; Yes, 1000 nM): 53% | % inhibition (Yes; Yes, 5000 nM, 5 µM): 77% | SIR (5000 nM) (Yes; Yes, % inhibition 2e-(S)/% inhibition 2e-(R) at 5000 nM): 0.97 | IC50 (Yes; Yes, error is standard deviation): 0.727 µM | S(40%) ([1]; 1000 nM): 0.16 | S(40%) ([1]; 5000 nM): 0.61 | increase of 5's inherent selectivity ([1]; less potent towards Ret): ~8 fold | % inhibition (Kit; 1000 nM, 1 µM): 18% | % inhibition (Kit; 5000 nM, 5 µM): 36% | SIR (5000 nM) (Kit; [2]): 1.38 | % inhibition (Her-2; 1000 nM, 1 µM): −7% | % inhibition (Her-2; 5000 nM): 0%
Compound: COc1ccc(Cl)c(-c2c(Cl)n(C(C)(C)C)c3ncnc(N)c23)c1 (single isomer, unassigned) [2e-(S), 7-(tert-butyl)-6-chloro-5-(2-chloro-5-methoxyphenyl)-7H-pyrrolo[2,3d]pyrimidin-4-amine]
